Measurements reported in paper PMC10216335, “Voltage-Gated Sodium Channel NaV1.7 Inhibitors with Potent Anticancer Activities in Medullary Thyroid Cancer Cells” (Cancers, 2023).
pIC50: −log10 of the molar value. Where a name gives a salt, the structure may show the parent alone.

Molecular target: T1, NaV1.7 (Rattus norvegicus, UniProt O08562)
T1 construct: gene Scn9a; rat cDNA NaV1.7 (GenBank No. U79568), transiently expressed in HEK-293 cells
Assay: whole-cell patch-clamp, INa block in transfected HEK-293 cells
Type: cell-based

T1 sequence (O08562 whole entry): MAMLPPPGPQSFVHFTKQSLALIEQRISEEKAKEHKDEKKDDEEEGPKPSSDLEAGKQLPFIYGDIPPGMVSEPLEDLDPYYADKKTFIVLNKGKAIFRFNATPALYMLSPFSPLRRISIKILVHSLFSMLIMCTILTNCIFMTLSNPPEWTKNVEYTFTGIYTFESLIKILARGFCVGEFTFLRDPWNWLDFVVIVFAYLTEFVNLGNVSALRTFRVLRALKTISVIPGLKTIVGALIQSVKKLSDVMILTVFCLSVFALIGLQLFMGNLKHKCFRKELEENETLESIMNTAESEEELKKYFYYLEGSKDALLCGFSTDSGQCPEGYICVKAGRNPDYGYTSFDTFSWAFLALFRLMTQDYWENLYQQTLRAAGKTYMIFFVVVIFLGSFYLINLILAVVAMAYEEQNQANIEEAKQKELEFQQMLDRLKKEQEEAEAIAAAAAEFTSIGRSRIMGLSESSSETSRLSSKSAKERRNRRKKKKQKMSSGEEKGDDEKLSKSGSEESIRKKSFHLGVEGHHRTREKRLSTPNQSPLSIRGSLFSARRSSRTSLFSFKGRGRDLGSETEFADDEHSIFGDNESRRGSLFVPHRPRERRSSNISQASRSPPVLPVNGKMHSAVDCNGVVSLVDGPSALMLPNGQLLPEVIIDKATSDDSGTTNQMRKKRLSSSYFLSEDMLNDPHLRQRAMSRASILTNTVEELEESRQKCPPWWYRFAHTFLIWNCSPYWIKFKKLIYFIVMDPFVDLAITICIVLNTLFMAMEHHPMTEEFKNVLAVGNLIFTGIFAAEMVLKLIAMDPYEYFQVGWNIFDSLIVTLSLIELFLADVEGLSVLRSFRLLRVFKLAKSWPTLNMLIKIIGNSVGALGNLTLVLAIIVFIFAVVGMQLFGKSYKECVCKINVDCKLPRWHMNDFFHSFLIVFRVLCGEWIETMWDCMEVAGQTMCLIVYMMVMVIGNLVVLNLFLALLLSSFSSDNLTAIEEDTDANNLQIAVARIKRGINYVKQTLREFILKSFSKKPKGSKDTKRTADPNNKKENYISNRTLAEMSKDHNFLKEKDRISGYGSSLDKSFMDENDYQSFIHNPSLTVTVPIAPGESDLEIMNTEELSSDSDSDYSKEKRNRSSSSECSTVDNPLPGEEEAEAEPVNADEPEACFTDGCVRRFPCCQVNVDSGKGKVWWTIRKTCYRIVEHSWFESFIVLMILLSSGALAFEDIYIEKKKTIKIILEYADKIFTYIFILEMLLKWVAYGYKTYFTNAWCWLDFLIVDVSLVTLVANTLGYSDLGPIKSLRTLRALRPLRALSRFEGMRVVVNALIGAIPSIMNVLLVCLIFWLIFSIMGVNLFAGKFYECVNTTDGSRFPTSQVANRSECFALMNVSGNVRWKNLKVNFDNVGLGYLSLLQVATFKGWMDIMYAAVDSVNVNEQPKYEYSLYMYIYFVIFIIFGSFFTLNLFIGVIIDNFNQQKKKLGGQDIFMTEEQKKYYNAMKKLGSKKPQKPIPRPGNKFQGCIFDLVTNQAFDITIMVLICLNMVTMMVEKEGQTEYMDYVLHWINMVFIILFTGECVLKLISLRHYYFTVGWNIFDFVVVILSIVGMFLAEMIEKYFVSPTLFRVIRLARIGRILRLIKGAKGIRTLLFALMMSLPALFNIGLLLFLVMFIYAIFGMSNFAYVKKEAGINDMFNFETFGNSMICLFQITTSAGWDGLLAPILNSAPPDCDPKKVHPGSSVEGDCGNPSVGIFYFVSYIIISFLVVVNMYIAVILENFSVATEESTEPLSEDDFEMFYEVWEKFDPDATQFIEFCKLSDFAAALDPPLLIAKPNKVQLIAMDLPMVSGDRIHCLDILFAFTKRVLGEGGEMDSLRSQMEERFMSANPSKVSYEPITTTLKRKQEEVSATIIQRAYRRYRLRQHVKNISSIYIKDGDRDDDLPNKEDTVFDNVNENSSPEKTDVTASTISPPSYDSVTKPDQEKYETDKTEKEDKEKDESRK

c1ccc(C(CCCNCCCN2CCCCC2)c2ccccc2)cc1 [SV188, 4,4-Diphenylbutyl [3-(piperidin-1-yl)propyl]amine Hydrochloride]
pIC50: 5.44
